Results: publication PMC5819996 (Cell chemical biology, 2017)

Tests used:
MBP-UbiB^CΔ47 = MBP-UbiB^CΔ47 (Escherichia coli, UniProt P0A6A0); assay: malachite green ATPase assay; assay type: biochemical; details: 100 μM ATP, 4 mM MgCl2, 1 mM Triton X-100 and 2-alkylphenols, pH 7.5, 30 °C
COQ8A^NΔ250 = COQ8A^NΔ250 (Homo sapiens, UniProt Q8NI60); assay: malachite green ATPase assay; assay type: biochemical; details: 100 μM ATP, 4 mM MgCl2, 1 mM Triton X-100 and 2-alkylphenols, pH 7.5, 30 °C
Sequence of COQ8A^NΔ250 (Q8NI60 251-647, stated change not applied): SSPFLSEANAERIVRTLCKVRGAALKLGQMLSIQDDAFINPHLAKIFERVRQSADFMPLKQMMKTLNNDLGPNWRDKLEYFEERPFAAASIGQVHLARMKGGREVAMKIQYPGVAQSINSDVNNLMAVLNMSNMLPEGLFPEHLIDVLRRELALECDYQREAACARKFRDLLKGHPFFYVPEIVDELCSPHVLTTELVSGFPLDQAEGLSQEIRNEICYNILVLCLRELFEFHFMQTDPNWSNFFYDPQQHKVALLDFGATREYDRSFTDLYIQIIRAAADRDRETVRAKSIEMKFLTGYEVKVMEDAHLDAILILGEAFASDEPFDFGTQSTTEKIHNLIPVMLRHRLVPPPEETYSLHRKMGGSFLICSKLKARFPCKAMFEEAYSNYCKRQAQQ

Sequence of MBP-UbiB^CΔ47 (P0A6A0 1-499, stated change not applied): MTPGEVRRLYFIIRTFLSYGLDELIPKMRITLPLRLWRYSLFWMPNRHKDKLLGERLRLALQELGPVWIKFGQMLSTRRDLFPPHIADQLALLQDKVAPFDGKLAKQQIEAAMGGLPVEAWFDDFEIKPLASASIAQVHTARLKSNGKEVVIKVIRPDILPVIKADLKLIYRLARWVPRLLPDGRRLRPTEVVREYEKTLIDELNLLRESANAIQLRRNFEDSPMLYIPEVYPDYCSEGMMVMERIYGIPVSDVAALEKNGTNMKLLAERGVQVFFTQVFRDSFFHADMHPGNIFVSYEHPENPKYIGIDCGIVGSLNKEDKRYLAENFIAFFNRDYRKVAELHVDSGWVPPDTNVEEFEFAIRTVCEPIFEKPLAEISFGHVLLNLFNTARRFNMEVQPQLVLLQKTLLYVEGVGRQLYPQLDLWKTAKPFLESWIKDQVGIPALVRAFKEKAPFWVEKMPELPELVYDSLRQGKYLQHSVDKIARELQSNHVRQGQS

## Nc1ncnc2c1ncn2[C@@H]1O[C@H](COP(=O)(O)OP(=O)(O)OP(=O)(O)O)[C@@H](O)[C@H]1O [ATP]
MBP-UbiB^CΔ47
  malachite green ATPase assay: 2-alkylphenols with Triton X-100 increase the ATPase activity of UbiB family members
COQ8A^NΔ250
  malachite green ATPase assay: 2-alkylphenols with Triton X-100 increase the ATPase activity of UbiB family members
